Values quoted from earlier work in patent US10933021B2, “Compositions of gallium (III) complexes for oral administration” (Altum Pharmaceuticals Inc., priority 2017, dated 2021).

Assays:
[1] = pH values below the pKa of 8-hydroxyquinoline (5.01)
[2] = pH 7.4, serum
[3] = test system: apoptosis induction; details: compared to simple gallium salts such as gallium nitrate
[4] = seven patients, oral enteric coated tablets of crystalline GaQ3, 10 mg, 20 mg, 30 mg strengths
[5] = target: albumin (Homo sapiens, UniProt P02768); details: human serum
Chain of albumin (P02768 25-609): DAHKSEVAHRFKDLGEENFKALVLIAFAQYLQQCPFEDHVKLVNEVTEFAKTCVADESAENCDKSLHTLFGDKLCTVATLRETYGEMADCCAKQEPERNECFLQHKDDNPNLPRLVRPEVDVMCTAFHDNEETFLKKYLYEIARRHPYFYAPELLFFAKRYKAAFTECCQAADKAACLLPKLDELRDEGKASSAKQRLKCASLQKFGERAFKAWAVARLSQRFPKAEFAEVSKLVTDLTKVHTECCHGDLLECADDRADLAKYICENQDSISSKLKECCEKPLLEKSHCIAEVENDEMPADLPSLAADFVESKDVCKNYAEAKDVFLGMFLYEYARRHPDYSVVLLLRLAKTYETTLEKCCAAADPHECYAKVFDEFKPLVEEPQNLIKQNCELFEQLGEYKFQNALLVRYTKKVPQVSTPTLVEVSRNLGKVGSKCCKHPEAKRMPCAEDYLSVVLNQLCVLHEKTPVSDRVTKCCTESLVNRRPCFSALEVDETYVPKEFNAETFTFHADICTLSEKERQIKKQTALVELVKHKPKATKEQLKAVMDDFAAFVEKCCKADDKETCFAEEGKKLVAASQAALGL

[6] = test system: tumor cell lines resistant to gallium nitrate
[7] = target: transferrin (Tf) (Homo sapiens, UniProt P02787); details: human serum
Chain of transferrin (Tf) (P02787 20-698): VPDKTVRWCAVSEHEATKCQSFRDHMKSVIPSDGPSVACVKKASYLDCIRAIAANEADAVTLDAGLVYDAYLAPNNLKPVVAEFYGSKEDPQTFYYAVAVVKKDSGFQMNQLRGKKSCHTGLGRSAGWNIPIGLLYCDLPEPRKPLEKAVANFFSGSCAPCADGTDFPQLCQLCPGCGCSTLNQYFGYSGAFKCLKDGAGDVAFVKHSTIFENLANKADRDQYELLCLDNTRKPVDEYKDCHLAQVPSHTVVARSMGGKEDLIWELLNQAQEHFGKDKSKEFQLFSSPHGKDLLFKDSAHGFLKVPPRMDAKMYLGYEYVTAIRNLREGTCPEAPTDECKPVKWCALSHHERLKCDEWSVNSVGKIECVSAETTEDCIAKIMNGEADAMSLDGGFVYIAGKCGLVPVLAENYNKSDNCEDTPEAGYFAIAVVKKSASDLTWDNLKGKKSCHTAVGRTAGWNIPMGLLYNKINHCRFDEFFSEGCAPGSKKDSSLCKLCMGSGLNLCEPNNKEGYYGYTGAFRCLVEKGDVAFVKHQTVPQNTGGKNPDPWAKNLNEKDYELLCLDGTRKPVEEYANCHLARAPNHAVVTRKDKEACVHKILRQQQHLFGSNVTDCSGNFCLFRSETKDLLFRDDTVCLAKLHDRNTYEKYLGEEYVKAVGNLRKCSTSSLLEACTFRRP

In the case of `[Ga+3].[O-]c1cccc2cccnc12.[O-]c1cccc2cccnc12.[O-]c1cccc2cccnc12` [GaQ3, tris (8-quinolinolato) gallium (III)], the “integrity of complexed structure” value [1] is given as “disrupted completely”, the stability in serum [2] is given as “very stable” and the “apoptosis induction relative to gallium nitrate” value [3] is given as “ca. 3 ×”. For the same compound, the tolerability [4] was “well tolerated”, the binding to albumin [5] was “binds very weakly” and the “activity against tumor cell lines resistant to gallium nitrate” value [6] was “active”. The “binding to transferrin (Tf)” value [7] was “strongly” and the solubility in water was 18-22 ppm.
